The text below walks through data of ChEMBL document CHEMBL3813696, “Identification of Compounds with Efficacy against Malaria Parasites from Common North American Plants” (J Nat Prod, 2016).

In data set [1] the test system is Plasmodium falciparum. Kind of data set: Antimalarial activity against multidrug sensitive Plasmodium falciparum HB3 assessed as growth inhibition after 72 hrs by SYBR Green based fluorescence assay. The data set is classed as functional, organism-based.
Data set [2] can be described thus: Selectivity ratio of IC50 for human HeLa cells to IC50 for multidrug resistant Plasmodium falciparum NHP1337. The note with it: for selectivity ratio: HeLa cells versus Plasmodium falciparum NHP1337, read-out: Ratio IC50; for Ratio IC50: hela. The class given is ADME, cell-based.
Data set [3] can be described thus: Selectivity ratio of IC50 for human HeLa cells to IC50 for multidrug sensitive Plasmodium falciparum HB3. The class given is ADME, cell-based. The note with it: for selectivity ratio: HeLa cells versus Plasmodium falciparum HB3, read-out: Ratio IC50; for Ratio IC50: hela.
Data set [4] is described as follows: Resistance index, ratio of IC50 for multidrug resistant Plasmodium falciparum NHP1337 to IC50 for multidrug sensitive Plasmodium falciparum HB3. The data set is classed as functional.
Data set [5] has as its system Plasmodium falciparum. Kind of data set: Antimalarial activity against multidrug resistant Plasmodium falciparum NHP1337 assessed as growth inhibition after 72 hrs by SYBR Green based fluorescence assay. The data set is classed as functional, organism-based.
Another data set deals with HeLa. Kind of data set: Cytotoxicity against human HeLa cells assessed as growth inhibition by sulforhodamine B assay. The data set is classed as cell-based. On the technique in general: In SRB staining, fixed cells bind dye roughly in proportion to their protein.
The mark [6] stands for this setting: Plasmodium falciparum, HB3, 72 h.
[7] abbreviates: Plasmodium falciparum, NHP1337, 72 h.

SMILES strings stand for the structures. pIC50: −log10 of the molar value.

For `CC(=O)O[C@@H]1[C@@H](OC(=O)/C=C/c2ccc(O)cc2)[C@H](Oc2c(-c3ccc(O)cc3)oc3cc(O)cc(O)c3c2=O)O[C@H](COC(=O)/C=C\c2ccc(O)cc2)[C@H]1OC(C)=O`, the pIC50 – broadly, −log10 of the IC50, conventionally taken in molar units – is 6.10 in the data set on Plasmodium falciparum [1] (setting [6]); 5.40 in the data set on Plasmodium falciparum [5] (setting [7]); greater than 5.52 with HeLa (Homo sapiens, HeLa). Moreover, the selectivity ratio in data set [2] was less than 0.8; in data set [3], less than 3.8. The Ratio IC50 in data set [4] came to 5.

As to `CC(=O)O[C@@H]1[C@@H](OC(=O)/C=C/c2ccc(O)cc2)[C@H](Oc2c(-c3ccc(O)cc3)oc3cc(O)cc(O)c3c2=O)O[C@H](COC(=O)/C=C/c2ccc(O)cc2)[C@H]1OC(C)=O`, the pIC50 is 6.22 with Plasmodium falciparum [1] (setting [6]); 5.68 in the data set on Plasmodium falciparum [5] (setting [7]); greater than 5.52 in the data set with HeLa (Homo sapiens, HeLa). Also, the values for the selectivity ratio in data set [2] and in data set [3] were less than 1.4 and less than 5, respectively. Moreover, the Ratio IC50 in data set [4] was determined as 3.5.

In the case of `CC(=O)O[C@@H]1[C@@H](OC(=O)/C=C\c2ccc(O)cc2)[C@H](Oc2c(-c3ccc(O)cc3)oc3cc(O)cc(O)c3c2=O)O[C@H](COC(=O)/C=C/c2ccc(O)cc2)[C@H]1OC(C)=O`, the pIC50 was 6.05 in the data set with Plasmodium falciparum [1] (setting [6]); 5.30 in the data set on Plasmodium falciparum [5] (setting [7]); greater than 5.52 in the data set on HeLa (Homo sapiens, HeLa). For the same molecule, the selectivity ratio in data set [2] was less than 0.6; in data set [3] it was less than 3.3. The Ratio IC50 in data set [4] amounted to 5.6.

For the molecule `C[C@@H]1O[C@@H](Oc2c(-c3ccc(O)cc3)oc3cc(O)cc(O)c3c2=O)[C@H](OC(=O)/C=C/c2ccc(O)cc2)[C@H](OC(=O)/C=C\c2ccc(O)cc2)[C@H]1O`, the pIC50 is 5.70 in the data set on Plasmodium falciparum [1] (setting [6]); 5.40 in the data set with Plasmodium falciparum [5] (setting [7]); 4.92 with HeLa (Homo sapiens, HeLa). The selectivity ratio in data set [2] was 3; in data set [3], 6. For the same molecule, the Ratio IC50 in data set [4] came to 2.

`COc1cc(O)c(-c2c(C)cc(O)c3c2C(=O)c2cccc(O)c2C3=O)c(O)c1C(C)=O` [KNIPHOLONE]: the figures for the selectivity ratio in data set [2] and in data set [3] were 6.5 and 6.6, respectively. The Ratio IC50 in data set [4] is 1. Moreover, the pIC50 with Plasmodium falciparum [5] (setting [7]) was 5.30; in the data set on HeLa (Homo sapiens, HeLa), 4.49.

`C=C(C)[C@@H]1CC[C@]2(CO)CC[C@]3(C)[C@H](CC[C@@H]4[C@@]5(C)CC[C@H](O)[C@@](C)(COC(=O)/C=C/c6ccc(O)c(OC)c6)[C@@H]5CC[C@]43C)[C@@H]12` (stereo in doubt; 3) [listing 1 of 2 here]: the pIC50 with Plasmodium falciparum [1] was 6.30; in the data set with Plasmodium falciparum [5] (setting [7]), 6.57; in the data set on HeLa (Homo sapiens, HeLa), less than 4.70. Also, the selectivity ratio was greater than 74 in data set [2] and greater than 40 in data set [3].

With `C=C(C)[C@@H]1CC[C@]2(CO)CC[C@]3(C)[C@H](CC[C@@H]4[C@@]5(C)CC[C@H](OC(=O)/C=C/c6ccc(O)c(OC)c6)[C@@](C)(CO)[C@@H]5CC[C@]43C)[C@@H]12`, the pIC50 was 5.52 in the data set on Plasmodium falciparum [1] (setting [6]); 5.64 in the data set with Plasmodium falciparum [5] (setting [7]); less than 4.70 in the data set with HeLa (Homo sapiens, HeLa). Besides, the selectivity ratio was greater than 8.7 in data set [2] and greater than 6.7 in data set [3]. The Ratio IC50 in data set [4] was determined as 0.8.

With `O=c1cc(-c2ccc(O)c(-c3c(O)cc(O)c4c(=O)cc(-c5ccc(O)cc5)oc34)c2)oc2cc(O)cc(O)c12` [AMENTOFLAVONE], the pIC50 in the data set on Plasmodium falciparum [1] (setting [6]) is 4.60; in the data set on Plasmodium falciparum [5] (setting [7]) it was 4.72; in the data set with HeLa (Homo sapiens, HeLa), 4.33. The figures for the selectivity ratio in data set [2] and in data set [3] were 2.4 and 1.9, respectively. Also, in data set [4], the Ratio IC50 is 0.8.

`C[C@@H]1O[C@@H](Oc2c(-c3ccc(O)cc3)oc3cc(O)cc(O)c3c2=O)[C@H](OC(=O)/C=C/c2ccc(O)cc2)[C@H](OC(=O)/C=C/c2ccc(O)cc2)[C@H]1O`: the pIC50 in the data set with Plasmodium falciparum [1] (setting [6]) is 6.22; in the data set with Plasmodium falciparum [5] (setting [7]), 5.15; in the data set on HeLa (Homo sapiens, HeLa), 4.69. The values for the selectivity ratio in data set [2] and in data set [3] were 2.9 and 34, respectively. The Ratio IC50 in data set [4] came out at 12.

With `C=C(C)[C@@H]1CC[C@]2(CO)CC[C@]3(C)[C@H](CC[C@@H]4[C@@]5(C)CC[C@H](O)[C@@](C)(COC(=O)/C=C/c6ccc(O)c(OC)c6)[C@@H]5CC[C@]43C)[C@@H]12` (stereo in doubt; 3) [listing 2 of 2 here], in data set [4], the Ratio IC50 came to 0.5.

Turning to `C=C(C)[C@@H]1CC[C@]2(CO)CC[C@]3(C)[C@H](CC[C@@H]4[C@@]5(C)CC[C@H](O)[C@@](C)(COC(=O)/C=C/c6ccc(O)cc6)[C@@H]5CC[C@]43C)[C@@H]12`, the pIC50 with Plasmodium falciparum [1] (setting [6]) is 6.05; in the data set with Plasmodium falciparum [5] (setting [7]) it was 6.07; in the data set on HeLa (Homo sapiens, HeLa), 4.55. Moreover, the selectivity ratio in data set [2] was found to be 33; in data set [3], 31. For the same molecule, in data set [4], the Ratio IC50 worked out at 0.9.

In the case of `C=C(C)[C@@H]1CC[C@]2(CO)CC[C@]3(C)[C@H](CC[C@@H]4[C@@]5(C)CC[C@H](O)[C@@](C)(CO)[C@@H]5CC[C@]43C)[C@@H]12`, the pIC50 with Plasmodium falciparum [1] (setting [6]) was 5.47; in the data set with Plasmodium falciparum [5] (setting [7]), 5.28; with HeLa (Homo sapiens, HeLa), less than 4.70. The selectivity ratio was greater than 3.8 in data set [2] and greater than 5.9 in data set [3]. The Ratio IC50 in data set [4] stood at 1.5.

Take `C=C(C)[C@@H]1CC[C@]2(CO)CC[C@]3(C)[C@H](CC[C@@H]4[C@@]5(C)CC[C@H](O)[C@@](C)(COC(=O)/C=C/c6ccc(O)c(OC)c6)[C@@H]5CC[C@]43C)[C@@H]12` (stereo in doubt) [listing 1 of 2 here]: the Ratio IC50 in data set [4] is 0.3.

For `C=C(C)[C@@H]1CC[C@]2(CO)CC[C@]3(C)[C@H](CC[C@@H]4[C@@]5(C)CC[C@H](OC(=O)/C=C/c6ccc(O)cc6)[C@@](C)(CO)[C@@H]5CC[C@]43C)[C@@H]12` (stereo in doubt) [listing 1 of 2 here], the Ratio IC50 in data set [4] was 0.7.

For `C[C@@H]1O[C@@H](Oc2c(-c3ccc(O)cc3)oc3cc(O)cc(O)c3c2=O)[C@H](OC(=O)/C=C\c2ccc(O)cc2)[C@H](OC(=O)/C=C\c2ccc(O)cc2)[C@H]1O`, the negative logarithm of the IC50 (pIC50) with Plasmodium falciparum [1] (setting [6]) was 5.74; with Plasmodium falciparum [5] (setting [7]) it was 5.15; in the data set with HeLa (Homo sapiens, HeLa), 4.80. Also, the selectivity ratio in data set [2] is 2.3; in data set [3] it was 8.9. The Ratio IC50 in data set [4] amounted to 3.9.

For the molecule `C=C(C)[C@@H]1CC[C@]2(CO)CC[C@]3(C)[C@H](CC[C@@H]4[C@@]5(C)CC[C@H](O)[C@@](C)(COC(=O)/C=C\c6ccc(O)cc6)[C@@H]5CC[C@]43C)[C@@H]12`, the pIC50 in the data set on Plasmodium falciparum [1] (setting [6]) is 6.10; in the data set with Plasmodium falciparum [5] (setting [7]), 5.82; in the data set on HeLa (Homo sapiens, HeLa), 5.15. The selectivity ratio in data set [2] amounted to 4.6; in data set [3] it was 8.8. Also, the Ratio IC50 in data set [4] was determined as 1.9.

`C=C(C)[C@@H]1CC[C@]2(CO)CC[C@]3(C)[C@H](CC[C@@H]4[C@@]5(C)CC[C@H](OC(=O)/C=C/c6ccc(O)cc6)[C@@](C)(CO)[C@@H]5CC[C@]43C)[C@@H]12` (stereo in doubt) [listing 2 of 2 here]: the pIC50 in the data set with Plasmodium falciparum [1] is 5.64; in the data set with Plasmodium falciparum [5] (setting [7]) it was 5.80; in the data set on HeLa (Homo sapiens, HeLa), 4.66. Also, the selectivity ratio in data set [2] stood at 14; in data set [3], 9.6.

`C=C(C)[C@@H]1CC[C@]2(CO)CC[C@]3(C)[C@H](CC[C@@H]4[C@@]5(C)CC[C@H](OC(=O)/C=C/c6ccc(O)cc6)[C@@](C)(CO)[C@@H]5CC[C@]43C)[C@@H]12` (stereo in doubt; 6) [listing 1 of 2 here]: the Ratio IC50 in data set [4] was 0.7.

Regarding `C=C(C)[C@@H]1CC[C@]2(CO)CC[C@]3(C)[C@H](CC[C@@H]4[C@@]5(C)CC[C@H](O)[C@@](C)(COC(=O)/C=C/c6ccc(O)c(OC)c6)[C@@H]5CC[C@]43C)[C@@H]12` (stereo in doubt) [listing 2 of 2 here], the pIC50 was 6.00 in the data set on Plasmodium falciparum [1] (setting [6]), 6.51 in the data set with Plasmodium falciparum [5] and 4.70 in the data set on HeLa (hela). The “Ratio IC50” value in data set [2] came to 65; in data set [3], 20.

For the molecule `CC(=O)O[C@@H]1[C@@H](OC(=O)/C=C\c2ccc(O)cc2)[C@H](Oc2c(-c3ccc(O)cc3)oc3cc(O)cc(O)c3c2=O)O[C@H](COC(=O)/C=C\c2ccc(O)cc2)[C@H]1OC(C)=O`, the pIC50 in the data set with Plasmodium falciparum [1] (setting [6]) is 5.68; in the data set on Plasmodium falciparum [5] (setting [7]), 5.42; in the data set with HeLa (Homo sapiens, HeLa), greater than 5.52. Also, the selectivity ratio is less than 0.8 in data set [2] and less than 1.4 in data set [3]. In data set [4], the Ratio IC50 is 1.8.

For the molecule `C=C(C)[C@@H]1CC[C@]2(CO)CC[C@]3(C)[C@H](CC[C@@H]4[C@@]5(C)CC[C@H](OC(=O)/C=C/c6ccc(O)cc6)[C@@](C)(CO)[C@@H]5CC[C@]43C)[C@@H]12` (stereo in doubt; 6) [listing 2 of 2 here], the pIC50 with Plasmodium falciparum [1] (setting [6]) was 5.72; in the data set with Plasmodium falciparum [5], 5.85; in the data set with HeLa (hela), less than 4.70. The “Ratio IC50” value is given as greater than 14 in data set [2] and greater than 11 in data set [3].

On to `C[C@@H]1O[C@@H](Oc2c(-c3ccc(O)cc3)oc3cc(O)cc(O)c3c2=O)[C@H](OC(=O)/C=C\c2ccc(O)cc2)[C@H](OC(=O)/C=C/c2ccc(O)cc2)[C@H]1O`, for which the pIC50 in the data set with Plasmodium falciparum [1] (setting [6]) was 6.30; in the data set with Plasmodium falciparum [5] (setting [7]) it was 5.39; in the data set on HeLa (Homo sapiens, HeLa), 5.03. Moreover, the selectivity ratio in data set [2] came out at 2.3; in data set [3], 19. Besides, the Ratio IC50 in data set [4] came out at 8.2.
